T1: nematode high-affinity choline transporter cho-1 (C48D1.3) (Caenorhabditis elegans, UniProt O02228)
T1 construct: injecting each cRNA prepared from candidate full-length cDNAs; expressed in transfected cells; host or cells: Xenopus oocytes (stage V to VI) microinjected with capped cRNA transcribed from modified pSPUTK vector
T1 sequence (O02228 1-576): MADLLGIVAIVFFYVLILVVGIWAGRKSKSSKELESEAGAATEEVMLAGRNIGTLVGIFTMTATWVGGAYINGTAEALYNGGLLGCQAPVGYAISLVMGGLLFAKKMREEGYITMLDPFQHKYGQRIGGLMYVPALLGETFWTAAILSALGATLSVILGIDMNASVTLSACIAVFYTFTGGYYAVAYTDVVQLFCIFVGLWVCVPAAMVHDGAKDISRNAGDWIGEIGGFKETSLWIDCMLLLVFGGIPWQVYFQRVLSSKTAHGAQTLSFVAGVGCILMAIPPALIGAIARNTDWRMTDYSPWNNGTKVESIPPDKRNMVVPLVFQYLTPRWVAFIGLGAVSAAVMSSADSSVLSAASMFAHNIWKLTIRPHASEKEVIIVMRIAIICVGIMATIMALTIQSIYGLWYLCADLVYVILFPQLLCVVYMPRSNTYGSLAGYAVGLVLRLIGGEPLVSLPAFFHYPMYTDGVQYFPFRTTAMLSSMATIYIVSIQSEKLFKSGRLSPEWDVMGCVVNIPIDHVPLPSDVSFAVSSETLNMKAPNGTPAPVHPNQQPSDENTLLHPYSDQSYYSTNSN

T2: rat CHT1 (high-affinity choline transporter) (Rattus norvegicus, UniProt Q9JMD7)
T2 construct: expressed in transfected cells; host or cells: Xenopus oocytes microinjected with CHT1 cRNA (clone in pSPUTK vector)
T2 sequence (Q9JMD7 1-580): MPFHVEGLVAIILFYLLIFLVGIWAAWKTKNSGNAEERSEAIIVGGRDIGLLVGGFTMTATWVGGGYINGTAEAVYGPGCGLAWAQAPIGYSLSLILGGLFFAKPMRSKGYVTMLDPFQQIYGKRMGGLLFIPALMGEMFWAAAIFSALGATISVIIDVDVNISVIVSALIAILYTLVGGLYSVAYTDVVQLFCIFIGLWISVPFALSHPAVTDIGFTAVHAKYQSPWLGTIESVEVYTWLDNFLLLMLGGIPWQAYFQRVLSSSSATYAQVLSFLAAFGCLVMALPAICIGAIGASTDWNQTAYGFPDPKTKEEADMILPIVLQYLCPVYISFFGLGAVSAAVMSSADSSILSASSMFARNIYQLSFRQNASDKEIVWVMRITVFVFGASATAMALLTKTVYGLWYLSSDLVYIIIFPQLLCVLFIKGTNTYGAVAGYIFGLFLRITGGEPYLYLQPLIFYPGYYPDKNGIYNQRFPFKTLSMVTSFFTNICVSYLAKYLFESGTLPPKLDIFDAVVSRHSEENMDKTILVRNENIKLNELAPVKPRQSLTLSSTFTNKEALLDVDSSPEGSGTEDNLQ

B1: rat CHT1 (high-affinity choline transporter) (Rattus norvegicus) (protein)
chain: T2 sequence (Q9JMD7 1-580)

Experiments:
[1] = tested on: endogenous choline uptake of control oocytes; experiment: Choline uptake of control Xenopus oocytes injected with water; assay type: cell-based; details: 10 μM HC3, oocytes injected with water
Experimental: (§1) In the presence of cap analog, cRNA was synthesized in vitro with SP6 or T7 RNA polymerase. 20 to 30 ng capped RNA was microinjected into oocytes (stage V to VI) of Xenopus. The uptake was measured in basically same manner as described previously (Nature 360, 467-471, 1992). […] The oocytes completing uptake were solubilized with 10% SDS, and the amount of [^3H] was measured by a liquid scintillation counter.

[2] = tested on: high-affinity uptake of choline in brain synaptosomes; details: cited from earlier work
[3] = biological target: T1, nematode high-affinity choline transporter cho-1 (C48D1.3); experiment: [3H] choline uptake of Xenopus oocytes injected with nematode cho-1 (C48D1.3) cRNA; assay type: cell-based, C. elegans
Experimental: as §1, with “Xenopus.” for “Xenopus. The uptake was measured in basically same manner as described previously (Nature 360, 467-471, 1992).”

[4] = tested on: low-affinity uptake of choline, distributed in every cells; details: read-out: Ki of HC3 for low-affinity uptake of choline, higher HC3 concentration; cited from earlier work
[5] = biological target: T2, rat CHT1 (high-affinity choline transporter); experiment: [3H] choline uptake of Xenopus oocytes injected with CHT1 cRNA; assay type: cell-based
Experimental: as §1

[6] = substrate: C[N+](C)(C)CCO; experiment: cells, lysate or membranes; details: other: Michaelis-Menten fit, water-injected uptake subtracted, n=3; pH 7.4

| Molecule | inhibition of choline uptake in control [1] | inhibition of high-affinity uptake of choline ([2]; 1 μM HC3, brain synaptosomes of mammals) | Ki ([2]; read-out: Ki of HC3 for high-affinity uptake of choline, brain synaptosomes of mammals) [nM] | Ki [3] [nM] | inhibition of cho-1 promoted choline uptake ([3]; 1 μM HC3, Xenopus oocytes) | Ki [4] [nM] | Ki [5] [nM] | inhibition of choline uptake of CHT1 ([5]; 0.1 μM HC3) | inhibition of Na+-dependent choline uptake of CHT1 ([5]; CHT1 expressed in Xenopus oocytes, concentration not given) | Km [6] [µM] |
| --- | --- | --- | --- | --- | --- | --- | --- | --- | --- | --- |
| C[N+]1(C)CCOC(O)(c2ccc(-c3ccc(C4(O)C[N+](C)(C)CCO4)cc3)cc2)C1 (stereo not shown) [HC3, hemicholinium-3] | only slight inhibition | completely inhibited | 10 to 100 | 50 | inhibited | 50000 | 2 to 3 | completely inhibited | completely inhibited |  |
| B1 |  |  |  |  |  |  |  |  |  | 2.2 ± 0.2 |

From patent US7294710B2 (Japan Science and Technology Agency, priority 1999, dated 2007)
